Assay results: DBAASP
≈ marks a conversion by molar mass, not a printed value. Where “and” joins values, the source holds several entries; their conditions need not be identical. Identical values can stand only once. Each block holds one compound with its values, some of them ahead of it.

Legend:
Assay in all cases: ≥ marks a high value that may be exact or a test limit, other limits are often not marked, values filed in µg/mL are converted to µM
[1] = test system: Escherichia coli CCARM 1238
[2] = test system: Listeria monocytogenes KCTC 3710
[3] = test system: Pseudomonas aeruginosa 3592
[4] = test system: Pseudomonas aeruginosa ATCC 27853
[5] = test system: Salmonella typhimurium CCARM 8009
[6] = test system: Salmonella typhimurium CCARM 8013
[7] = test system: Salmonella typhimurium KCTC 1926
[8] = test system: Staphylococcus aureus ATCC 25923
[9] = test system: Staphylococcus aureus CCARM 3114
[10] = test system: Pseudomonas aeruginosa BH01
[11] = test system: Pseudomonas aeruginosa BH02
[12] = test system: Pseudomonas aeruginosa BH03
[13] = test system: Pseudomonas aeruginosa BH04
[14] = test system: Pseudomonas aeruginosa PAO1
[15] = test system: Escherichia coli NBRC 3972
[16] = test system: Pseudomonas aeruginosa NBRC 13275
[17] = test system: Staphylococcus aureus NBRC 13276
Acinetobacter baumannii = test system: Acinetobacter baumannii
Aeromonas hydrophila = test system: Aeromonas hydrophila
Aeromonas sobria = test system: Aeromonas sobria
Aeromonas veronii = test system: Aeromonas veronii
Aspicilia cinerea = test system: Aspicilia cinerea
Bacillus cereus = test system: Bacillus cereus
Bacillus subtilis = test system: Bacillus subtilis
Candida albicans = test system: Candida albicans
Candida glabrata 1 = test system: Candida glabrata 1
Candida glabrata = test system: Candida glabrata
Enterococcus faecalis = test system: Enterococcus faecalis
Enterococcus faecium = test system: Enterococcus faecium
Escherichia coli 1 = test system: Escherichia coli 1
[18] = test system: Escherichia coli ATCC 25922
Escherichia coli = test system: Escherichia coli
Klebsiella oxytoca = test system: Klebsiella oxytoca
Klebsiella pneumoniae = test system: Klebsiella pneumoniae
Nocardia asteroides = test system: Nocardia asteroides
Proteus mirabilis = test system: Proteus mirabilis
Proteus vulgaris = test system: Proteus vulgaris
Pseudomonas aeruginosa = test system: Pseudomonas aeruginosa
[19] = test system: Salmonella enterica subsp. enterica serovar Paratyphi A
Shigella dysenteriae = test system: Shigella dysenteriae
Staphylococcus aureus 1 = test system: Staphylococcus aureus 1
Staphylococcus aureus 4 = test system: Staphylococcus aureus 4
Staphylococcus aureus = test system: Staphylococcus aureus
[20] = test system: Staphylococcus epidermidis
[21] = test system: Stenotrophomonas maltophilia 2
[22] = test system: Stenotrophomonas maltophilia
Vibrio anguillarum = test system: Vibrio anguillarum
Vibrio cholerae = test system: Vibrio cholerae
Vibrio harveyi = test system: Vibrio harveyi
Vibrio parahaemolyticus = test system: Vibrio parahaemolyticus

MIC [1]: 4 µM and 8 µM
MIC [2]: 4 µM (≈ 6.72 µg/mL)
MIC [3]: 8 µM and 16 µM
MIC [4]: 4 µM and 8 µM
MIC [5]: 8 µM (≈ 13.4 µg/mL)
MIC [6]: 16 µM and ≥ 32 µM
MIC [7]: 2 µM (≈ 3.36 µg/mL)
MIC [8]: 0.25 µM (≈ 0.42 µg/mL)
MIC [9]: 16 µM and ≥ 32 µM
SMILES: CC[C@H](C)[C@H](NC(=O)[C@H](Cc1c[nH]c2ccccc12)NC(=O)[C@H](CCCCN)NC(=O)[C@@H](NC(=O)[C@@H](N)CCCCN)[C@@H](C)CC)C(=O)N[C@@H](CC(C)C)C(=O)N[C@@H](CCCCN)C(=O)N[C@@H](Cc1ccc(O)cc1)C(=O)N[C@@H](Cc1c[nH]c2ccccc12)C(=O)N[C@@H](CCCCN)C(=O)N[C@@H](Cc1c[nH]c2ccccc12)C(=O)N[C@@H](CO)C(=O)O [KIKWILKYWKWS]

MIC [10]: 26.4 µM (≈ 65.1 µg/mL)
MIC [11]: 26.4 µM (≈ 65.1 µg/mL)
MIC [12]: 26.4 µM (≈ 65.1 µg/mL)
MIC [13]: 26.4 µM (≈ 65.1 µg/mL)
MIC [14]: 26.4 µM (≈ 65.1 µg/mL)
SMILES: CC(=O)N[C@@H](CCC(=O)O)C(=O)N[C@@H](CCC(=O)O)C(=O)N[C@@H](CCC(=O)O)C(=O)N[C@@H](CCC(=O)O)C(=O)N[C@@H](C)C(=O)N[C@@H](C)C(=O)N[C@@H](C)C(=O)NCC(=O)N[C@@H](Cc1c[nH]c2ccccc12)C(=O)NCC(=O)N[C@@H](CC(C)C)C(=O)N[C@@H](CCCN=C(N)N)C(=O)N[C@@H](CCCN=C(N)N)C(=O)N[C@@H](CC(C)C)C(=O)N[C@@H](CC(C)C)C(=O)N[C@@H](CCCCN)C(=O)N[C@@H](Cc1ccc(O)cc1)C(=O)NCC(=O)N[C@@H](CCCCN)C(=O)N[C@@H](CCCN=C(N)N)C(=O)N[C@@H](CO)C(N)=O [EEEEAAAGWGLRRLLKYGKRS]

MIC [15]: ≥ 800 µM
MIC [16]: ≥ 800 µM
MIC [17]: ≥ 800 µM
SMILES: CC(=O)N[C@@H](CCCCN)C(=O)N[C@@H](CCCCN)C(=O)N[C@@H](C)C(=O)N[C@@H](CCCCN)C(=O)N[C@@H](CCCCN)C(=O)N[C@@H](C)C(=O)N[C@@H](CCCCN)C(=O)N[C@@H](CCCCN)C(=O)N[C@@H](C)C(N)=O [KKAKKAKKA]

MIC (Acinetobacter baumannii): ≥ 65.7 µM
MIC (Aeromonas hydrophila): 12.3 µM (≈ 37.5 µg/mL)
MIC (Aeromonas sobria): 12.3 µM (≈ 37.5 µg/mL)
MIC (Aspicilia cinerea): ≥ 65.7 µM
MIC (Bacillus cereus): ≥ 65.7 µM
MIC (Bacillus subtilis): 3.08 µM (≈ 9.38 µg/mL)
MIC (Candida albicans): > 65.7 µM
MIC (Candida glabrata 1): ≥ 65.7 µM
MIC (Candida glabrata): 12.3 µM (≈ 37.5 µg/mL)
MIC (Enterococcus faecalis): ≥ 65.7 µM
MIC (Enterococcus faecium): ≥ 65.7 µM
MIC (Escherichia coli 1): 1.54 µM (≈ 4.69 µg/mL)
MIC [18]: 3.08 µM (≈ 9.38 µg/mL)
MIC (Escherichia coli): 4.36 µM (≈ 13.3 µg/mL)
MIC (Klebsiella oxytoca): ≥ 65.7 µM
MIC (Klebsiella pneumoniae): 3.08 µM (≈ 9.38 µg/mL)
MIC (Nocardia asteroides): 6.16 µM (≈ 18.8 µg/mL)
MIC (Proteus mirabilis): 3.08 µM (≈ 9.38 µg/mL)
MIC (Proteus vulgaris): ≥ 65.7 µM
MIC [4]: 12.3 µM (≈ 37.5 µg/mL)
MIC (Pseudomonas aeruginosa): 6.16 µM (≈ 18.8 µg/mL)
MIC [19]: 12.3 µM (≈ 37.5 µg/mL)
MIC (Shigella dysenteriae): 12.3 µM (≈ 37.5 µg/mL)
MIC (Staphylococcus aureus 1): ≥ 65.7 µM
MIC (Staphylococcus aureus 4): 3.08 µM (≈ 9.38 µg/mL)
MIC [8]: > 65.7 µM
MIC (Staphylococcus aureus): 12.3 µM (≈ 37.5 µg/mL)
MIC [20]: ≥ 65.7 µM
MIC [21]: 6.16 µM (≈ 18.8 µg/mL)
MIC [22]: ≥ 65.7 µM
MIC (Vibrio anguillarum): 6.16 µM (≈ 18.8 µg/mL)
MIC (Vibrio harveyi): 12.3 µM (≈ 37.5 µg/mL)
SMILES: CC[C@H](C)[C@H](NC(=O)CNC(=O)[C@H](Cc1c[nH]c2ccccc12)NC(=O)CNC(=O)[C@H](C)NC(=O)[C@H](C)NC(=O)[C@H](CCCCN)NC(=O)[C@H](CC(C)C)NC(=O)CNC(=O)CNC(=O)[C@H](CCCN=C(N)N)NC(=O)[C@H](CC(C)C)NC(=O)[C@H](CC(C)C)NC(=O)[C@H](Cc1c[nH]c2ccccc12)NC(=O)[C@H](CC(C)C)NC(=O)[C@H](Cc1c[nH]c2ccccc12)NC(=O)[C@H](CCCN=C(N)N)NC(=O)[C@@H](N)[C@@H](C)O)C(=O)N[C@@H](CCCN=C(N)N)C(=O)N[C@@H](C)C(=O)N[C@@H](Cc1cnc[nH]1)C(=O)N[C@@H](CC(C)C)C(=O)N[C@@H](CC(N)=O)C(=O)N[C@@H](CCCN=C(N)N)C(=O)N[C@@H](CC(N)=O)C(=O)N[C@@H](CCC(N)=O)C(=O)O [TRWLWLLRGGLKAAGWGIRAHLNRNQ]
MIC (Aeromonas veronii): 24.6 µM (≈ 75 µg/mL)
MIC (Vibrio cholerae): 12.3 µM (≈ 37.5 µg/mL)
MIC (Vibrio parahaemolyticus): 12.3 µM (≈ 37.5 µg/mL)
